Assays:
[1] = Isokinetic squat peak force on mechanized squat device; format: in vivo, human; conditions: for PFCON ES (d) / PFECC ES (d): Cohen's d baseline vs week 8; for PFCON Δ (%) / PFECC Δ (%): change baseline to week 8 relative to baseline; for PFCON (N) Week 4 / PFCON (N) Week 8: concentric peak force; for PFCON (N) Week 4 / PFCON (N) Week 8 / PFECC (N) Week 4 / PFECC (N) Week 8: mean ± SE; for PFECC (N) Week 4 / PFECC (N) Week 8: eccentric peak force; for PFCON (N) Δ / PFECC (N) Δ: week 8 minus baseline
Text: Assessments of muscular performance took place between 12:00 and 18:00 in the non-fasted state, and participants were instructed to follow their preferred food and fluid intake patterns prior to testing. The assessment began with a 5-minute warm up period using a self-selected pace on a stationary bicycle. This warm up period was followed by assessment of countermovement vertical jumps (CMVJ) performance, testing on a mechanized squat device, and muscular strength and endurance assessment on the bench press and hip sled exercises. At the 4-week assessment, the CMVJ and hip sled assessments were not performed.
Isometric and isokinetic squats were performed using a mechanized squat device (Exerbotics eSq, Tulsa, Okla., USA) (31, 32). At the first assessment, each participant's preferred foot positioning was determined using a custom grid overlaid on the foot platform of the squat device. This foot positioning was recorded and utilized for all visits. No weight belts, knee wraps, or other aids were utilized during testing. Prior to testing, the participant's range of motion for isokinetic testing was determined. The range of motion was set to 90° between the thigh and lower leg at the bottom of the repetition and approximately 170° at the top of the repetition, as determined by a goniometer. The isometric testing included maximal effort pushes at 120° and 150° knee angles. Each participant was instructed to push against the device as hard and fast as possible while attempting to complete a squat movement. Two isometric pushes were performed at each knee angle, and each effort lasted approximately 2 to 3 seconds. After the isometric testing, a 3-repetition maximum isokinetic force production test was completed. Prior to testing, participants observed the movement of the machine and received verbal instruction regarding proper performance of the assessment. Each of the repetitions during the maximal isokinetic force production test consisted of a 4-second eccentric phase, followed by an approximately half-second pause at the 90° knee position and a 4-second concentric phase. During testing, the force signal was sampled from the load cell at 1 kHz (MP100; Biopac Systems, Inc, Santa Barbara, Calif., USA), stored on a personal computer, and processed off-line using custom-written software (LabVIEW, Version 11.0; National Instruments, Austin, Tex., USA). The scaled force signal was low-pass filtered, with a 10-Hz cutoff (zero-phase lag, fourth-order Butterworth filter). All subsequent analyses were conducted on the scaled and filtered force signal. For the isometric force production tests, the rate of force development (RFD) over specific time intervals (i.e. 30, 50, 100 and 200 ms) was calculated by manually specifying the onset of force production within the custom LabVIEW program. For each repetition of the maximum isokinetic force production test, isokinetic peak forces (PF) were determined as the highest mean 25-ms epoch for both concentric and eccentric testing (i.e. PFCONC and PFECC).

[2] = Vascular assessments (blood pressure, aortic pulse wave velocity); format: in vivo, human; parameters: Pulse Wave Velocity: unit not given here; conditions: for Aortic Diastolic Pressure / Aortic Systolic Pressure / Brachial Diastolic Pressure / Brachial Systolic Pressure / Heart Rate / Pulse Wave Velocity: mean ± SE; for Aortic Diastolic Pressure Δ / Aortic Diastolic Pressure Δ (%) / Aortic Systolic Pressure Δ / Aortic Systolic Pressure Δ (%) / Brachial Diastolic Pressure Δ / Brachial Diastolic Pressure Δ (%) / Brachial Systolic Pressure Δ / Brachial Systolic Pressure Δ (%) / Heart Rate Δ / Heart Rate Δ (%) / Pulse Wave Velocity Δ / Pulse Wave Velocity Δ (%): change baseline to W 8; for Aortic Diastolic Pressure ES (d) / Aortic Systolic Pressure ES (d) / Brachial Diastolic Pressure ES (d) / Brachial Systolic Pressure ES (d) / Heart Rate ES (d) / Pulse Wave Velocity ES (d): effect size
Description: Brachial blood pressure was measured using an automated cuff-based sphygmomanometer (HEM-907, Omron Healthcare. Kyoto, Japan). From this measurement, mean blood pressure and diastolic blood pressure were used to calibrate ensemble-averaged pressure waveforms measured at the left radial artery using applanation tonometry (SphygmoCor PVx, AtCor Medical, Itasca, Ill., USA). A general transfer function was also used to synthesize a central aortic waveform from the radial artery measurement. Wave separation analysis of the aortic pressure waveform allowed estimation of aortic pulse wave velocity (PWV), an index of arterial stiffness. Each participant remained supine for ≥10 min prior to vascular assessment. Duplicate measurements were obtained and averaged for analysis.

[3] = 3 g/d Calcium-HMB without intermittent fasting + RT, cited from earlier work

CC(C)(O)CC(=O)O [TRFHMB, β-hydroxy-β-methylbutyrate]
Average effect size for tests of lower body force generation (1RMLP, PFCON, PFECC, RFD) ([1]; Cohen's d, vs 0.3-0.4 in TRF or CD): 0.6-0.7
PFCON ES (d) ([1]; ITT analysis): 0.83
PFECC ES (d) ([1]; ITT analysis): 0.60
PFCON Δ (%) ([1]; ITT analysis): 29%
PFECC Δ (%) ([1]; ITT analysis): 19%
PFCON (N) Week 4 ([1]; ITT analysis): 1195 ± 92 N
PFCON (N) Week 8 ([1]; ITT analysis): 1324 ± 112 N
PFECC (N) Week 4 ([1]; ITT analysis): 1301 ± 93 N
PFECC (N) Week 8 ([1]; ITT analysis): 1407 ± 95 N
PFCON (N) Δ ([1]; ITT analysis): 295 N
PFECC (N) Δ ([1]; ITT analysis): 223 N
PFCON ES (d) ([1]; PP analysis): 0.95
PFECC ES (d) ([1]; PP analysis): 0.48
PFCON Δ (%) ([1]; PP analysis): 31%
PFECC Δ (%) ([1]; PP analysis): 14%
PFCON (N) Week 4 ([1]; PP analysis): 1247 ± 133 N
PFCON (N) Week 8 ([1]; PP analysis): 1418 ± 154 N
PFECC (N) Week 4 ([1]; PP analysis): 1311 ± 136 N
PFECC (N) Week 8 ([1]; PP analysis): 1475 ± 133 N
PFCON (N) Δ ([1]; PP analysis): 336 N
PFECC (N) Δ ([1]; PP analysis): 184 N
Aortic Diastolic Pressure ([2]; ITT, Baseline): 68 ± 2 mmHg
Aortic Systolic Pressure ([2]; ITT, Baseline): 96 ± 2 mmHg
Brachial Diastolic Pressure ([2]; ITT, Baseline): 67 ± 1 mmHg
Brachial Systolic Pressure ([2]; ITT, Baseline): 112 ± 2 mmHg
Heart Rate ([2]; ITT, Baseline): 62 ± 3 bpm
Pulse Wave Velocity ([2]; ITT, Baseline): 5.5 ± 0.2
Aortic Diastolic Pressure ([2]; ITT, W 8): 64 ± 2 mmHg
Aortic Systolic Pressure ([2]; ITT, W 8): 94 ± 2 mmHg
Brachial Diastolic Pressure ([2]; ITT, W 8): 63 ± 2 mmHg
Brachial Systolic Pressure ([2]; ITT, W 8): 110 ± 2 mmHg
Heart Rate ([2]; ITT, W 8): 63 ± 3 bpm
Pulse Wave Velocity ([2]; ITT, W 8): 5.7 ± 0.1
Aortic Diastolic Pressure Δ ([2]; ITT): −4 mmHg
Aortic Diastolic Pressure Δ (%) ([2]; ITT): −6%
Aortic Systolic Pressure Δ ([2]; ITT): −2 mmHg
Aortic Systolic Pressure Δ (%) ([2]; ITT): −2%
Brachial Diastolic Pressure Δ ([2]; ITT): −4 mmHg
Brachial Diastolic Pressure Δ (%) ([2]; ITT): −6%
Brachial Systolic Pressure Δ ([2]; ITT): −2 mmHg
Brachial Systolic Pressure Δ (%) ([2]; ITT): −2%
Heart Rate Δ ([2]; ITT): 1 bpm
Heart Rate Δ (%) ([2]; ITT): 2%
Pulse Wave Velocity Δ ([2]; ITT): 0.2
Pulse Wave Velocity Δ (%) ([2]; ITT): 4%
Aortic Diastolic Pressure ES (d) ([2]; ITT): −0.64
Aortic Systolic Pressure ES (d) ([2]; ITT): −0.46
Brachial Diastolic Pressure ES (d) ([2]; ITT): −0.63
Brachial Systolic Pressure ES (d) ([2]; ITT): −0.22
Heart Rate ES (d) ([2]; ITT): 0.07
Pulse Wave Velocity ES (d) ([2]; ITT): 0.37
Aortic Diastolic Pressure ([2]; PP, Baseline): 68 ± 2 mmHg
Aortic Systolic Pressure ([2]; PP, Baseline): 97 ± 2 mmHg
Brachial Diastolic Pressure ([2]; PP, Baseline): 67 ± 2 mmHg
Brachial Systolic Pressure ([2]; PP, Baseline): 111 ± 2 mmHg
Heart Rate ([2]; PP, Baseline): 62 ± 5 bpm
Pulse Wave Velocity ([2]; PP, Baseline): 5.5 ± 0.3
Aortic Diastolic Pressure ([2]; PP, W 8): 65 ± 2 mmHg
Aortic Systolic Pressure ([2]; PP, W 8): 95 ± 2 mmHg
Brachial Diastolic Pressure ([2]; PP, W 8): 64 ± 2 mmHg
Brachial Systolic Pressure ([2]; PP, W 8): 112 ± 2 mmHg
Heart Rate ([2]; PP, W 8): 62 ± 5 bpm
Pulse Wave Velocity ([2]; PP, W 8): 5.8 ± 0.2
Aortic Diastolic Pressure Δ ([2]; PP): −3 mmHg
Aortic Diastolic Pressure Δ (%) ([2]; PP): −4%
Aortic Systolic Pressure Δ ([2]; PP): −2 mmHg
Aortic Systolic Pressure Δ (%) ([2]; PP): −2%
Brachial Diastolic Pressure Δ ([2]; PP): −3 mmHg
Brachial Diastolic Pressure Δ (%) ([2]; PP): −4%
Brachial Systolic Pressure Δ ([2]; PP): 1 mmHg
Brachial Systolic Pressure Δ (%) ([2]; PP): 1%
Heart Rate Δ ([2]; PP): 0 bpm
Heart Rate Δ (%) ([2]; PP): 0%
Pulse Wave Velocity Δ ([2]; PP): 0.3
Pulse Wave Velocity Δ (%) ([2]; PP): 5%
Aortic Diastolic Pressure ES (d) ([2]; PP): −0.53
Aortic Systolic Pressure ES (d) ([2]; PP): −0.20
Brachial Diastolic Pressure ES (d) ([2]; PP): −0.49
Brachial Systolic Pressure ES (d) ([2]; PP): 0.13
Heart Rate ES (d) ([2]; PP): 0.06
Pulse Wave Velocity ES (d) ([2]; PP): 0.46
BF % after 4 weeks ([3]; females n=18, from 23.7±1.1, nonsignificant): 23.0±1.2%
BF % 4-week Δ-change [3]: −0.7%

Reference: patent publication US20190209501A1, “COMPOSITIONS AND METHODS OF USE OF BETA-HYDROXY-BETA-METHYLBUTYRATE (HMB) […] IN[…]” (Texas Tech University Office of Research Commercialization, priority 2018, published 2019)
